{
  "source": "PubChem BioAssay AID743124",
  "about": "(Broad Institute, 2013)",
  "note": "Values joined by “and” are separate entries in the source; they are usually repeats but may differ in a detail not shown here. Equal entries are not always repeated. Results filed as inconclusive are left out. Active and inactive are the calls of the source.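 Rule for the calls: active = compounds whose fitted half-maximal concentration is at most twice their own top valid dose, with signal falling; inconclusive = flat curve with 30 to 70% inhibition, or poor fit; inactive = the rest.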",
  "data": [
    {"test_system": "S. cerevisiae Rlm1-lacZ reporter, CFW-induced, luminescence 4 h", "assay": "inhibitors of CFW-induced Rlm1 reporter, dose response, S. cerevisiae, lacZ luminescence, calcofluor white, dry powder (AID 743124)", "conditions": "not given", "values": [
      {"smiles": "Cc1ccc(C(C)C)c(OCCn2c(=S)[nH]c3ccccc32)c1", "AC50": "> 70 µM (inactive)"},
      {"smiles": "COC(=O)C1=C(C)N(Cc2ccc(F)cc2)C(=S)NC1c1cccc(F)c1", "note": "(centres undefined)", "AC50": "> 70 µM (inactive)"},
      {"smiles": "COC(=O)C1=C(C)N(Cc2ccc(Br)cc2)C(=S)NC1c1ccc(F)cc1", "note": "(centres undefined)", "AC50": "> 70 µM (inactive)"},
      {"smiles": "Fc1ccccc1OCCn1c(=S)[nH]c2ccccc21", "AC50": "> 70 µM (inactive)"},
      {"smiles": "CCOC(=O)c1c(-c2ccc(-c3ccccc3)cc2)csc1NC(=O)CNCCN(C)C", "AC50": "> 70 µM (inactive)"},
      {"smiles": "S=c1[nH]c2ccccc2n1CCOc1ccccc1", "AC50": "> 70 µM (inactive)"},
      {"smiles": "Cc1ccc(OCCn2c(SCCO)nc3ccccc32)c(C(C)C)c1", "AC50": "> 70 µM (inactive)"},
      {"smiles": "Fc1cccc2c1[nH]c(=S)n2CCOc1ccccc1", "AC50": "> 70 µM (inactive)"},
      {"smiles": "CCOC(=O)c1c(NC(=O)CN2CCN(C)CC2)sc(C)c1-c1ccc(C)cc1", "AC50": "> 70 µM (inactive)"},
      {"smiles": "Cc1ccc(OCCn2c(=S)[nH]c3ccccc32)cc1", "AC50": "33.2 µM"},
      {"smiles": "S=c1[nH]c2cccc(Cl)c2n1CCOc1ccccc1", "AC50": "26.7 µM"}
    ]},
    {"test_system": "not listed separately", "assay": "inhibitors of CFW-induced Rlm1 reporter, dose response, S. cerevisiae, lacZ luminescence, calcofluor white, dry powder (AID 743124)", "conditions": "S. cerevisiae Rlm1-lacZ reporter, CFW-induced, luminescence 4 h; at 35 µM (top of the series)", "values": [
      {"smiles": "CCOC(=O)c1c(-c2ccc(OC)cc2)csc1NC(=O)CN(C)CC(=O)N(C)C", "activity change, negative = inhibition": "-25% (inactive)"},
      {"smiles": "Cc1ccc2c(c1)[nH]c(=S)n2CCOc1ccccc1", "activity change, negative = inhibition": "-5.38% (inactive)"},
      {"smiles": "COC(=O)C1=C(C)N(Cc2ccc(Cl)cc2)C(=S)NC1c1ccc(Br)cc1", "note": "(centres undefined)", "activity change, negative = inhibition": "0.264% (inactive)"},
      {"smiles": "CCOC(=O)c1c(-c2ccc(F)cc2)csc1NC(=O)CN1CCN(CC)CC1", "activity change, negative = inhibition": "-5.43% (inactive)"},
      {"smiles": "Cc1ccc(OCCn2cnc3ccccc32)cc1", "activity change, negative = inhibition": "15.9% (inactive)"},
      {"smiles": "CCOC(=O)c1c(-c2ccc(C(C)(C)C)cc2)csc1NC(=O)CN1CCN(CC)CC1", "activity change, negative = inhibition": "-28.1% (inactive)"},
      {"smiles": "COC(=O)C1=C(C)N(Cc2ccc(Br)cc2)C(=S)NC1c1ccc(OC)cc1", "note": "(centres undefined)", "activity change, negative = inhibition": "1.69% (inactive)"},
      {"smiles": "COC(=O)C1=C(C)N(Cc2ccccc2)C(=S)NC1c1ccc(Br)cc1", "note": "(centres undefined)", "activity change, negative = inhibition": "9.97% (inactive)"},
      {"smiles": "CCOC(=O)c1c(-c2ccc(F)cc2)csc1NC(=O)CN1CCN(C)CC1", "activity change, negative = inhibition": "-6.7% (inactive)"},
      {"smiles": "CCOC(=O)c1c(NC(=O)CNCCN(C)C)sc(C)c1-c1ccccc1", "activity change, negative = inhibition": "-8.38% (inactive)"},
      {"smiles": "O=c1[nH]c2ccccc2n1CCOc1ccccc1", "activity change, negative = inhibition": "6.62% (inactive) and -10.4% (inactive)"},
      {"smiles": "Cc1ccccc1OCCn1c(=S)[nH]c2ccccc21", "activity change, negative = inhibition": "-14.7% (inactive)"},
      {"smiles": "Cc1ccc(OCCn2c(C)nc3ccccc32)cc1", "activity change, negative = inhibition": "13.6% (inactive)"}
    ]}
  ]
}
